Measurements taken from publication PMC7402526, “An in vitro quantitative systems pharmacology approach for deconvolving mechanisms of drug-induced, multilineage cytopenias” (PLoS Computational Biology, 2020).
“Also recorded” adds a separate entry of the source.

Legend:
[1] = tested on: hematopoietic stem cells (HSCs); test: Multi-lineage toxicity assay (MLTA), HSCs: concentration-response and QSP model fit; type: cell-based, human; conditions: Homo sapiens, Hematopoietic stem cell, 144 h
How it was run: (§1)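 Drug was added at time 0 to thawed human bone marrow CD34+ cells in SFEM II plus a cytokine cocktail. After 6 days at 37°C, subsets were counted by surface-marker flow with TruCount beads. Vehicle-normalized, donor-pooled data then fed an Emax model separating anti-proliferative from cell-killing effects.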

granulocytes (Gran-lin) = test: MLTA, Gran: concentration-response and QSP model fit; type: cell-based, human; conditions: Homo sapiens, 144 h
How it was run: (§2)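 Six-day flow cytometry counts, bead-normalized and expressed relative to the mean of six vehicle wells, underlie each value. Cells were primary human bone marrow CD34+ cells cultured in SFEM II with cytokines promoting multi-lineage differentiation and self-renewal.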

[2] = tested on: monocyte progenitors (monocyte prog); test: MLTA, MonoP: concentration-response and QSP model fit; type: cell-based, human; conditions: Homo sapiens, Monocyte, 144 h
How it was run: as §2

monocytes (monocyte-lin) = test: MLTA, Mono: concentration-response and QSP model fit; type: cell-based, human; conditions: Homo sapiens, Monocyte, 144 h
How it was run: as §2

[3] = tested on: neutrophils (neutrophil-lin); test: MLTA, Neut: concentration-response and QSP model fit; type: cell-based, human; conditions: Homo sapiens, Neutrophil, 144 h
How it was run: as §1

[4] = tested on: late erythroid cells (Eryth II); test: MLTA, ErythII: concentration-response and QSP model fit; type: cell-based, human; conditions: Homo sapiens, 144 h
How it was run: as §1

[5] = tested on: total dead cells (totalDeadCells); test: MLTA, total dead cells concentration-response; type: cell-based; conditions: Homo sapiens, 144 h, 6 days, normalized to vehicle control, read-out: total_dead normalized cell count
How it was run: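 Freeze-thawed primary human bone marrow CD34+ cells in SFEM II with cytokine cocktail, drug added day 0, 6 days at 37°C, 5% CO2. Live/dead counts by 17-parameter flow cytometry with DAPI exclusion, bead-normalized, volume-corrected to cells/mL. Normalized per donor to mean of six vehicle wells; 2–7 donors pooled.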

[6] = tested on: human bone marrow-derived CD34+ cells differentiated into multiple hematopoietic lineages; test: MLTA, overall effects across hematopoietic lineages; type: cell-based
How it was run: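 Thawed primary human bone marrow CD34+ cells grown in SFEM II with a multi-lineage cytokine cocktail, drug added day 0, 6 days at 37°C, 5% CO2. Subsets counted by 17-parameter flow cytometry with TruCount beads, normalized to six vehicle wells per donor (2–7 donors); Emax model fitted per cell type.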

O=C1CCC(N2C(=O)c3ccccc3C2=O)C(=O)N1 (stereo not drawn) [thalidomide]
activity at 0.0002 µM ([1]; dose 0.2 nM, 6 days, normalized to vehicle control, read-out: HSCs normalized cell count): 67.6%
activity at 0.001 µM ([1]; dose 1 nM, 6 days, normalized to vehicle control, read-out: HSCs normalized cell count): 92.6%
activity at 0.005 µM ([1]; dose 5 nM, 6 days, normalized to vehicle control, read-out: HSCs normalized cell count): 109%
activity at 0.025 µM ([1]; dose 25 nM, 6 days, normalized to vehicle control, read-out: HSCs normalized cell count): 96.3%
activity at 0.1 µM ([1]; dose 100 nM, 6 days, normalized to vehicle control, read-out: HSCs normalized cell count): 84.9%
activity at 0.5 µM ([1]; dose 500 nM, 6 days, normalized to vehicle control, read-out: HSCs normalized cell count): 99.8%
activity at 2.5 µM ([1]; dose 2500 nM, 6 days, normalized to vehicle control, read-out: HSCs normalized cell count): 113%
Emax ([1]; parameter from QSP model fitting, read-out: Emax_drug_HSC): 0.000374%
activity at 0.0002 µM (granulocytes (Gran-lin); dose 0.2 nM, 6 days, normalized to vehicle control, read-out: Gran normalized cell count): 85%
activity at 0.001 µM (granulocytes (Gran-lin); dose 1 nM, 6 days, normalized to vehicle control, read-out: Gran normalized cell count): 100%
activity at 0.005 µM (granulocytes (Gran-lin); dose 5 nM, 6 days, normalized to vehicle control, read-out: Gran normalized cell count): 110%
activity at 0.025 µM (granulocytes (Gran-lin); dose 25 nM, 6 days, normalized to vehicle control, read-out: Gran normalized cell count): 126%
activity at 0.1 µM (granulocytes (Gran-lin); dose 100 nM, 6 days, normalized to vehicle control, read-out: Gran normalized cell count): 94.9%
activity at 0.5 µM (granulocytes (Gran-lin); dose 500 nM, 6 days, normalized to vehicle control, read-out: Gran normalized cell count): 92.7%
activity at 2.5 µM (granulocytes (Gran-lin); dose 2500 nM, 6 days, normalized to vehicle control, read-out: Gran normalized cell count): 102%
Emax (granulocytes (Gran-lin); parameter from QSP model fitting, read-out: Emax_drug_Gran): 0.01%
activity at 0.0002 µM ([2]; dose 0.2 nM, 6 days, normalized to vehicle control, read-out: MonoPs normalized cell count): 90.1%
activity at 0.001 µM ([2]; dose 1 nM, 6 days, normalized to vehicle control, read-out: MonoPs normalized cell count): 93.5%
activity at 0.005 µM ([2]; dose 5 nM, 6 days, normalized to vehicle control, read-out: MonoPs normalized cell count): 98.4%
activity at 0.025 µM ([2]; dose 25 nM, 6 days, normalized to vehicle control, read-out: MonoPs normalized cell count): 120%
activity at 0.1 µM ([2]; dose 100 nM, 6 days, normalized to vehicle control, read-out: MonoPs normalized cell count): 92%
activity at 0.5 µM ([2]; dose 500 nM, 6 days, normalized to vehicle control, read-out: MonoPs normalized cell count): 82.7%
activity at 2.5 µM ([2]; dose 2500 nM, 6 days, normalized to vehicle control, read-out: MonoPs normalized cell count): 104%
Emax ([2]; parameter from QSP model fitting, read-out: Emax_drug_MonoP): 0.00494%
activity at 0.0002 µM (monocytes (monocyte-lin); dose 0.2 nM, 6 days, normalized to vehicle control, read-out: Mon normalized cell count): 83.3%
activity at 0.001 µM (monocytes (monocyte-lin); dose 1 nM, 6 days, normalized to vehicle control, read-out: Mon normalized cell count): 94%
activity at 0.005 µM (monocytes (monocyte-lin); dose 5 nM, 6 days, normalized to vehicle control, read-out: Mon normalized cell count): 89.4%
activity at 0.025 µM (monocytes (monocyte-lin); dose 25 nM, 6 days, normalized to vehicle control, read-out: Mon normalized cell count): 106%
activity at 0.1 µM (monocytes (monocyte-lin); dose 100 nM, 6 days, normalized to vehicle control, read-out: Mon normalized cell count): 94.4%
activity at 0.5 µM (monocytes (monocyte-lin); dose 500 nM, 6 days, normalized to vehicle control, read-out: Mon normalized cell count): 99.9%
activity at 2.5 µM (monocytes (monocyte-lin); dose 2500 nM, 6 days, normalized to vehicle control, read-out: Mon normalized cell count): 97.3%
Emax (monocytes (monocyte-lin); parameter from QSP model fitting, read-out: Emax_drug_Mono): 0.00608%
activity at 0.0002 µM ([3]; dose 0.2 nM, 6 days, normalized to vehicle control, read-out: Neut normalized cell count): 99.5%
activity at 0.001 µM ([3]; dose 1 nM, 6 days, normalized to vehicle control, read-out: Neut normalized cell count): 79.1%
activity at 0.005 µM ([3]; dose 5 nM, 6 days, normalized to vehicle control, read-out: Neut normalized cell count): 88.2%
activity at 0.025 µM ([3]; dose 25 nM, 6 days, normalized to vehicle control, read-out: Neut normalized cell count): 94.5%
activity at 0.1 µM ([3]; dose 100 nM, 6 days, normalized to vehicle control, read-out: Neut normalized cell count): 62.4%
activity at 0.5 µM ([3]; dose 500 nM, 6 days, normalized to vehicle control, read-out: Neut normalized cell count): 69%
activity at 2.5 µM ([3]; dose 2500 nM, 6 days, normalized to vehicle control, read-out: Neut normalized cell count): 96.9%
Emax ([3]; parameter from QSP model fitting, read-out: Emax_drug_Neut): 1.13%
activity at 0.0002 µM ([4]; dose 0.2 nM, 6 days, normalized to vehicle control, read-out: ErythII normalized cell count): 94.3%
activity at 0.001 µM ([4]; dose 1 nM, 6 days, normalized to vehicle control, read-out: ErythII normalized cell count): 99.8%
activity at 0.005 µM ([4]; dose 5 nM, 6 days, normalized to vehicle control, read-out: ErythII normalized cell count): 105%
activity at 0.025 µM ([4]; dose 25 nM, 6 days, normalized to vehicle control, read-out: ErythII normalized cell count): 111%
activity at 0.1 µM ([4]; dose 100 nM, 6 days, normalized to vehicle control, read-out: ErythII normalized cell count): 77.8%
activity at 0.5 µM ([4]; dose 500 nM, 6 days, normalized to vehicle control, read-out: ErythII normalized cell count): 87.5%
activity at 2.5 µM ([4]; dose 2500 nM, 6 days, normalized to vehicle control, read-out: ErythII normalized cell count): 93.7%
Emax ([4]; parameter from QSP model fitting, read-out: Emax_drug_ErythroidII): 0.00351%
activity at 0.0002 µM ([5]; dose 0.2 nM): 91.6%
activity at 0.001 µM ([5]; dose 1 nM): 109%
activity at 0.005 µM ([5]; dose 5 nM): 96.3%
activity at 0.025 µM ([5]; dose 25 nM): 120%
activity at 0.1 µM ([5]; dose 100 nM): 113%
activity at 0.5 µM ([5]; dose 500 nM): 105%
activity at 2.5 µM ([5]; dose 2500 nM): 99.8%
effect on hematopoietic cell numbers across cell types ([6]; 0.2-2500 nM, 6 days, relative to vehicle control): least effect on hematopoietic cell types across doses; also recorded: did not drastically decrease cell types
EmaxT effects across cell types (overall statement) ([6]; QSP model fit, EmaxT > 1.0 = cell-killing): ≤ 0.1
